Assay [1] relates to HT-29. The assay can be described thus: Induction of apoptosis in human HT-29 cells assessed as decrease in ATP level after 72 hrs by luminescence assay. It is filed as functional, cell-based.
Assay [2] relates to KG-1. The assay can be described thus: Induction of apoptosis in human KG1 cells assessed as DNA fragmentation at 5 uM after 48 hrs by acridine orange staining method. It is filed as functional.
For assay [3], the system named is A549. The assay can be described thus: Induction of apoptosis in human A549 cells assessed as decrease in ATP level after 72 hrs by luminescence assay. It is filed as functional, cell-based.
The test system of assay [4] is KG-1. The assay can be described thus: Growth inhibition in human KG1 cells expressing p53 gene at 5 uM after 48 hrs by MTT assay. In kind it is functional. The following applies: KG-1, 48 h, read-out: GI. (Tetrazolium dyes change colour on reduction, which living cells bring about.)
Assay [5] relates to KG-1. The assay can be described thus: Induction of apoptosis in human KG1 cells expressing p53 gene assessed as DNA fragmentation at 1 uM after 48 hrs by acridine orange staining method. In kind it is functional.
Assay [6] deals with KG-1. The assay can be described thus: Growth inhibition in human KG1 cells expressing p53 gene at 1 uM after 48 hrs by MTT assay. It is filed as functional. As to conditions: KG-1, 48 h, read-out: GI.
Assay [7] relates to PC-3. The assay can be described thus: Induction of apoptosis in human PC3 cells assessed as decrease in ATP level after 72 hrs by luminescence assay. In kind it is functional, cell-based.
Assay [8] relates to HT-29. The assay can be described thus: Induction of apoptosis in human HT-29 cells assessed as decrease in ATP level at 5 uM after 72 hrs by luminescence assay. In kind it is functional. The arrangement: scale not given: the % may be the effect or the level left.
Assay [9] relates to PC-3. The assay can be described thus: Induction of apoptosis in human PC3 cells assessed as decrease in ATP level at 5 uM after 72 hrs by luminescence assay. In kind it is functional. The arrangement: scale not given: the % may be the effect or the level left.
Assay [10] concerns A549. The assay can be described thus: Induction of apoptosis in human A549 cells assessed as decrease in ATP level at 10 uM after 72 hrs by luminescence assay. In kind it is functional, cell-based.
Assay [11] relates to PC-3. The assay can be described thus: Induction of apoptosis in human PC3 cells assessed as decrease in ATP level at 10 uM after 72 hrs by luminescence assay. It is filed as functional, cell-based.
In assay [12] the test system is A549. The assay can be described thus: Induction of apoptosis in human A549 cells assessed as decrease in ATP level at 5 uM after 72 hrs by luminescence assay. It is filed as functional. Details: scale not given: the % may be the effect or the level left.
The subject of assay [13] is HT-29. The assay can be described thus: Induction of apoptosis in human HT-29 cells assessed as decrease in ATP level at 10 uM after 72 hrs by luminescence assay. It is filed as functional.
Assay [14] in a line: Induction of apoptosis in mouse MMTV-Wnt-1 cells assessed as cell viability after 72 hrs by DAPI staining based cell counting. It is filed as functional.
Assay [15] can be described thus: Induction of apoptosis in retinoid-resistant p53 null human HL60R cells assessed as DNA fragmentation at 1 uM after 24 hrs by acridine orange staining method. In kind it is functional.
The nature of assay [16]: Induction of apoptosis in retinoid-resistant p53 null human HL60R cells assessed as DNA fragmentation at 0.1 uM after 24 hrs by acridine orange staining method. It is filed as functional.

Active and inactive are the calls of the source. The rule behind the calls is not given here.

As usually defined, the IC50 is the concentration at which inhibition is half-maximal.

As for `O=C(O)CCc1ccc(-c2ccc(O)c(C34CC5CC(CC(C5)C3)C4)c2)c(Cl)c1`, the Activity result in the assay with HT-29 [1] was “Dose-dependent effect”; in the assay with KG-1 [2] it was 1%; in the assay on A549 [3] it was “Dose-dependent effect”; with KG-1 [5] it was 0%; in the assay on PC-3 [7], “Dose-dependent effect”. In addition, in the assay on KG-1 [4], the inhibition of growth at 5 µM stood at 0%. Besides, in the assay on KG-1 [6], the inhibition of growth at 1 µM amounted to 0%.

Consider `O=C(O)/C=C/c1ccc(-c2ccc(O)c(C34CC5CC(CC(C5)C3)C4)c2)nn1`, for which the Activity entry is “<=5%” with HT-29 [8]; >60% with PC-3 [9]; “Dose-dependent effect” in the assay with HT-29 [1]; 59% with KG-1 [2]; “Dose-dependent effect” in the assay on A549 [3]; 48% in the assay with KG-1 [5]. Also, the Activity entry in the assay with A549 [12] was “<=5%”; in the assay on PC-3 [7] it was “Dose-dependent effect”. Moreover, in the assay on A549 [10], the outcome was inactive. For the same compound, the result with PC-3 [11] was Active. For the same compound, the inhibition of growth at 5 µM in the assay on KG-1 [4] came out at 80%. Also, the inhibition of growth at 1 µM with KG-1 [6] is 70%.

For `O=C(O)/C=C/c1cnc(-c2ccc(O)c(C34CC5CC(CC(C5)C3)C4)c2)c(Cl)c1`, the result with A549 [10] and in the assay on PC-3 [11] was Active. For the same compound, the Activity result with HT-29 [1] is “Dose-dependent effect”; with KG-1 [2], 65%; with A549 [3], “Dose-dependent effect”; in the assay with KG-1 [5] it was 56%; in the assay on PC-3 [7] it was “Dose-dependent effect”. Also, the outcome with HT-29 [13] was inactive. Further, the inhibition of growth at 5 µM in the assay on KG-1 [4] came out at 47%. For the same compound, in the assay with KG-1 [6], the inhibition of growth at 1 µM was found to be 41%.

For the compound `O=C(O)c1cc2ccc(-c3ccc(O)c(C45CC6CC(CC(C6)C4)C5)c3)cc2[nH]1`, the Activity result in the assay on HT-29 [1] was “Dose-dependent effect”; in the assay on KG-1 [2] it was 3%; in the assay with A549 [3], “Dose-dependent effect”; with KG-1 [5], 1%; in the assay with PC-3 [7] it was “Dose-dependent effect”. The inhibition of growth at 5 µM in the assay on KG-1 [4] was 8%. In the assay with KG-1 [6], the inhibition of growth at 1 µM came out at 1%.

With `O=C(O)/C=C/c1ccc(-c2ccc(O)c(C34CC5CC(CC(C5)C3)C4)c2)cn1`, the Activity is 10% in the assay on HT-29 [8]; >60% in the assay with PC-3 [9]; “Dose-dependent effect” in the assay on HT-29 [1]; 52% in the assay on KG-1 [2]; “Dose-dependent effect” in the assay with A549 [3]; 36% in the assay on KG-1 [5]. Further, the values for the Activity in the assay with A549 [12] and with PC-3 [7] were 10% and “Dose-dependent effect”, respectively. The outcome in the assay on A549 [10] and in the assay on PC-3 [11] was Active. The inhibition of growth at 5 µM with KG-1 [4] was 58%. Further, the inhibition of growth at 1 µM in the assay with KG-1 [6] came to 48%.

`O=C(O)CS(=O)(=O)c1ccc(-c2ccc(O)c(C34CC5CC(CC(C5)C3)C4)c2)c(Cl)c1`: the Activity entry was “Dose-dependent effect” with HT-29 [1]; 6% in the assay with KG-1 [2]; “Dose-dependent effect” in the assay with A549 [3]; 2% in the assay with KG-1 [5]; “Dose-dependent effect” in the assay with PC-3 [7]. Further, in the assay on KG-1 [4], the inhibition of growth at 5 µM was found to be 13%. Besides, in the assay on KG-1 [6], the inhibition of growth at 1 µM was 7%.

`O=C(O)COc1ccc(-c2ccc(O)c(C34CC5CC(CC(C5)C3)C4)c2)c(Cl)c1`: the result with A549 [10] was inactive. The Activity entry in the assay on HT-29 [1] is “Dose-dependent effect”; with KG-1 [2], 25%; with A549 [3], “Dose-dependent effect”; in the assay on KG-1 [5] it was 5%; with PC-3 [7] it was “Dose-dependent effect”. Moreover, in the assay on KG-1 [4], the inhibition of growth at 5 µM is 75%. For the same compound, the inhibition of growth at 1 µM in the assay on KG-1 [6] is 34%.

`O=C(O)CC(=O)N1CCN(c2ccc(O)c(C34CC5CC(CC(C5)C3)C4)c2)C(=O)C1`: the Activity entry in the assay with HT-29 [1] is “Dose-dependent effect”; in the assay with KG-1 [2], 2%; in the assay with A549 [3] it was “Dose-dependent effect”; with KG-1 [5], 1%; with PC-3 [7] it was “Dose-dependent effect”. For the same compound, the inhibition of growth at 5 µM in the assay on KG-1 [4] was -5%. For the same compound, in the assay with KG-1 [6], the inhibition of growth at 1 µM is -2%.

On to `O=C(O)CCN1CCN(c2ccc(O)c(C34CC5CC(CC(C5)C3)C4)c2)CC1`, for which the result with A549 [10] was inactive. Also, the Activity entry in the assay with HT-29 [1] was “Dose-dependent effect”; with KG-1 [2], 1%; with A549 [3], “Dose-dependent effect”; with KG-1 [5], 1%; with PC-3 [7] it was “Dose-dependent effect”. Further, the result in the assay on PC-3 [11] was Active. For the same compound, the inhibition of growth at 5 µM in the assay on KG-1 [4] amounted to 5%. Moreover, the inhibition of growth at 1 µM with KG-1 [6] is -3%.

Take `O=C(O)CSc1ccc(-c2ccc(O)c(C34CC5CC(CC(C5)C3)C4)c2)c(Cl)c1`: the Activity result in the assay on HT-29 [1] was “Dose-dependent effect”; in the assay with KG-1 [2] it was 5%; in the assay on A549 [3], “Dose-dependent effect”; in the assay on KG-1 [5] it was 2%; in the assay on PC-3 [7], “Dose-dependent effect”. Further, the inhibition of growth at 5 µM in the assay with KG-1 [4] turned out to be 11%. Also, the inhibition of growth at 1 µM in the assay on KG-1 [6] turned out to be 7%.

Consider `O=C(O)/C=C/C1CCN(c2ccc(O)c(C34CC5CC(CC(C5)C3)C4)c2)CC1`, for which the Activity entry is “Dose-dependent effect” with HT-29 [1]; 1% in the assay with KG-1 [2]; “Dose-dependent effect” in the assay with A549 [3]; 1% with KG-1 [5]; “Dose-dependent effect” in the assay on PC-3 [7]. Further, the inhibition of growth at 5 µM in the assay with KG-1 [4] was found to be 2%. In addition, in the assay with KG-1 [6], the inhibition of growth at 1 µM came to 1%.

Regarding `O=C(O)/C=C/c1cnc(-c2ccc(O)c(C34CC5CC(CC(C5)C3)C4)c2)cn1`, the Activity entry in the assay with HT-29 [1] was “Dose-dependent effect”; in the assay on KG-1 [2] it was 50%; in the assay with A549 [3], “Dose-dependent effect”; in the assay on KG-1 [5], 39%; in the assay on PC-3 [7], “Dose-dependent effect”. The IC50 in [14] amounted to 316 nM. Also, the result in the assay with HT-29 [13] was inactive. The result with PC-3 [11] was Active. In addition, in the assay on KG-1 [4], the inhibition of growth at 5 µM came to 61%. The inhibition of growth at 1 µM in the assay with KG-1 [6] was determined as 44%.

On to `O=C(O)CNc1cnc(-c2ccc(O)c(C34CC5CC(CC(C5)C3)C4)c2)nc1`, for which the Activity result was “Dose-dependent effect” in the assay with HT-29 [1]; 0% in the assay on KG-1 [2]; “Dose-dependent effect” with A549 [3]; 0% with KG-1 [5]; “Dose-dependent effect” with PC-3 [7]. Besides, in the assay with KG-1 [4], the inhibition of growth at 5 µM was found to be 0%. Moreover, the inhibition of growth at 1 µM in the assay on KG-1 [6] is 0%.

Take `CCOC(=O)/C=C/c1ccc(-c2ccc(O)c(C34CC5CC(CC(C5)C3)C4)c2)nc1`: the result in the assay on A549 [10] and in the assay on PC-3 [11] was Active. In addition, the Activity entry in the assay with HT-29 [1] is “Dose-dependent effect”; in the assay on KG-1 [2], 0%; in the assay on A549 [3] it was “Dose-dependent effect”; in the assay on KG-1 [5] it was 0%; with PC-3 [7], “Dose-dependent effect”. For the same compound, the inhibition of growth at 5 µM with KG-1 [4] turned out to be 45%. Besides, the inhibition of growth at 1 µM in the assay on KG-1 [6] stood at 0%.

For the compound `O=C(O)c1ccc2c(Cl)c(-c3ccc(O)c(C45CC6CC(CC(C6)C4)C5)c3)ccc2c1`, the Activity in assay [15] is 94%; in [16] it was 62%.

Regarding `O=C(O)CNc1ccc(-c2ccc(O)c(C34CC5CC(CC(C5)C3)C4)c2)c(Cl)c1`, in the assay with A549 [10], the outcome was inactive. Also, the Activity result in the assay with HT-29 [1] was “Dose-dependent effect”; with HT-29 [13] it was “>=40%”; in the assay with KG-1 [2] it was 35%; with A549 [3], “Dose-dependent effect”; in the assay with KG-1 [5], 18%; in the assay with PC-3 [7], “Dose-dependent effect”. Also, the inhibition of growth at 5 µM with KG-1 [4] was 45%. Besides, in the assay on KG-1 [6], the inhibition of growth at 1 µM was determined as 30%.

Regarding `CC(=O)Oc1ccc(-c2ccc(/C=C/C(=O)O)cn2)cc1C12CC3CC(CC(C3)C1)C2`, the Activity entry in the assay on HT-29 [1] is “Dose-dependent effect”; in the assay with KG-1 [2], 67%; in the assay with A549 [3] it was “Dose-dependent effect”; with KG-1 [5], 52%; in the assay with PC-3 [7] it was “Dose-dependent effect”. For the same compound, the inhibition of growth at 5 µM with KG-1 [4] was determined as 54%. Moreover, the inhibition of growth at 1 µM with KG-1 [6] came out at 46%.
